# Measurements taken from patent US9975922B2, “Peptide inhibitor of HIV reverse transcription” (priority 2013, dated 2018).
# Where a SMILES comes first, the peptide text is derived from it.
# Experiments:
# [1] = molecular target: modified hASL^Lys3UUU; assay: fluorescent binding assay of fluorescein-labeled peptides, binding constants; design: species or system human; settings: for Kd: Modified hASL^Lys3UUU, N-terminal fluorescein peptide, phosphate buffer pH 6.8, ASL 0-3 μM; for affinity relative to P6: from Kd values, compared with P6
# Method: (§1) Fifteen-amino acid peptides were selected from the sequences predicted in silico and were chemically synthesized, each with fluorescein (Flc) at the N-terminus. This set of peptides included the original P1 and P6 sequences to be used as an internal control. […] Concentrated peptide stocks were stored in 25 μl aliquots at […] for later use. Working concentrations were diluted for each experiment and kept on ice or stored at −20° C.
# (§2) Fluorescent assays were conducted in phosphate buffer (10 mM Na2HPO4 and 10 mM KH2PO4, pH 6.8) in low volume 384 well plates. All buffers, peptides, and RNA were pipetted into wells via a liquid handling robot (Janus, PerkinElmer). All plates were read using a plate reader fitted with fluorescein specific filters (PerkinElmer EnVision) which was optimized for each plate and peptide before each experiment. Initial validation screens were conducted by obtaining fluorescent signals for each peptide (0.50 μM) alone (FS0) and in the presence of a 2-fold excess of modified or unmodified hASLLys3UUU (FS1). Percent change in fluorescent signal was calculated (% Change=100*(FS1/FS0)). A decrease (quench) in fluorescent signal in the presence of RNA indicated a binding event between the peptide and ASL. In control wells H2O, phosphate buffer, and ASLs were individually tested for any inherent fluorescent signal. Water and buffer signals served as blank background signals. […] All controls and experimental sets were repeated in triplicate within a single plate and signals are an average of each triplicate. For the subset of peptides which were further studied to obtained binding constants, the fluorescent binding assay was completed as above. The peptide fluorescent signal was monitored throughout an increasing ASL concentration (0-3 μM). The percent quench in signal was plotted against the hASL concentration. Binding constants (Kd) were calculated using the single linear regression function within SigmaPlot. Experiments were performed in triplicate within a single plate and fluorescent signals are an average of each triplicate.
# [2] = test system: modified hASL^Lys3UUU; assay: initial validation screen, change in peptide fluorescence on addition of ASL; assay type: binding, human; settings: 2-fold excess of modified hASL^Lys3UUU; result in words
# Method: (§3) An initial fluorescent signal (FS0) of peptide alone ([…]) was obtained. Then, a 2-fold excess of ASL was added to each peptide and the fluorescent signal (FS1) was monitored. The percent change (100*(FS1/FS0)) is graphed for each of the assayed peptides. Dark gray bars represent the percent change in fluorescence in the presence of the modified hASL^Lys3UUU and light gray bars represent the percent change in the presence of the unmodified hASL^Lys3UUU.
# (§4) Sequences predicted during the in silico optimizations to have the lowest binding energies and thus, potentially higher affinity for modified hASL^Lys3, were selected for validation with a fluorescence assay (9). Fifteen peptides (Table 3) were chemically synthesized with fluorescein at the N-terminus to allow for very sensitive, low volume detection of peptide-RNA binding interactions. P1 and P6 from phage display selections (9), the initially evolved sequences, P26 and P27, and the best binders from each of the Cases 1, 2 and 3 were synthesized. Variants of these sequences that had one or two amino acid changes were also synthesized (Table 3). During the initial validation assay, changes in the amount of fluorescence were monitored to determine whether the peptide was binding to the modified and/or unmodified hASLLys3UUU and to what relative degree (FIG. 12). In this screening assay, P6 behaved as expected. […] Other peptides behaved similarly.
# as §1, §2
# [3] = test system: unmodified hASL^Lys3UUU; assay: as above; assay type: binding, human; settings: 2-fold excess of unmodified hASL^Lys3UUU; result in words
# Method: as §3, §4, §1, §2
# [4] = test system: hypermodified ASL^Lys3; settings: result in words; cited from earlier work
# [5] = test system: singly modified ASL^Lys3, AsL^Lys1, 2 and Escherichia coli ASL^Glu and ASL^Val; settings: singly modified ASL^Lys3, ASL^Lys1,2, E. coli ASL^Glu and ASL^Val; result in words; cited from earlier work
# [6] = molecular target: unmodified ASL; settings: NCp7, unmodified ASL; cited from earlier work
# [7] = molecular target: modified hASLLys3; settings: cited from earlier work
# [8] = molecular target: unmodified hASL^Lys3UUU; assay: fluorescent binding assay of fluorescein-labeled peptides, binding constants; design: species or system human; settings: N-terminal fluorescein peptide, phosphate buffer pH 6.8, ASL 0-3 μM
# Method: as §1, §2
Compound,Kd [1],"change in fluorescent signal of peptide (binding, preference for modified ASL) [2]",other results
"CSCC[C@H](NC(=O)[C@H](CCCNC(=N)N)NC(=O)[C@H](Cc1c[nH]c2ccccc12)NC(=O)[C@H](CC(C)C)NC(=O)[C@@H]1CCCN1C(=O)[C@H](Cc1c[nH]cn1)NC(=O)[C@H](Cc1ccccc1)NC(=O)[C@H](CO)NC(=O)[C@H](Cc1c[nH]cn1)NC(=O)[C@H](Cc1c[nH]cn1)NC(=O)[C@H](CCC(N)=O)NC(=O)[C@H](Cc1c[nH]c2ccccc12)NC(=O)[C@@H](N)CCCNC(=N)N)C(=O)N[C@@H](CO)C(=O)NCC(=O)O [Peptide P31, RWQHHSFHPLWRMSG] (H-RWQHHSFHPLWRMSG-OH)",0.58 ± 0.24 µM,quenched to a greater degree in binding the modified hASL^Lys3UUU than was the fluorescence of P6,affinity relative to P6 [1]: equivalent to P6; change in fluorescent signal of peptide [3]: little or no change in fluorescence
RGVFSHPHTAVPSHN,,,binding affinity [4]: relatively high binding affinity; binding [5]: bound poorly
"CC(C)C[C@H](NC(=O)[C@H](Cc1ccccc1)NC(=O)[C@H](C)NC(=O)[C@H](Cc1c[nH]cn1)NC(=O)[C@H](Cc1c[nH]cn1)NC(=O)[C@@H](NC(=O)[C@@H](NC(=O)[C@@H](N)CCCNC(=N)N)C(C)C)[C@@H](C)O)C(=O)NCC(=O)N[C@@H](C)C(=O)N[C@@H](Cc1c[nH]cn1)C(=O)N[C@@H](CCCNC(=N)N)C(=O)N[C@H](C(=O)N[C@H](C(=O)NCC(=O)O)C(C)C)[C@@H](C)O [Peptide P6, RVTHHAFLGAHRTVG, reference compound] (H-RVTHHAFLGAHRTVG-OH)",0.5 ± 0.1 µM,quenched more than when bound by the unmodified hASL^Lys3UUU,
RHSHAHFGPPWLSHG [Peptide P33],,significantly weaker affinities and a lack of specificity,
RHHHASFGPPWLSHG [Peptide P32],,significantly weaker affinities and a lack of specificity,
"NCp7: HIV-1 nucleocapsid protein 7, binds and destabilizes htRNA^Lys3UUU (MQRGNFRNQRKIVKCFNCGKEGHTARNCRAPRKKGCWKCGKEGHQMKDCTERQAN; Nucleocapsid protein p7; UniProt P04591 378-432, looked up)",,,"Kd [6]: 2.3 ± 0.62 µM; Kd ([7]; NCp7, modified hASLLys3): 0.28 ± 0.03 µM; increase of NCp7 affinity by the modifications ([7]; modified vs unmodified hASLLys3): ~10 fold"
RWNGSQWFCAWRANG [Peptide P36],,"increased the fluorescence either with the unmodified or modified hASL^Lys3UUU, but not both",
RWTHCQFWQGFRVNG [Peptide P38],,"increased the fluorescence either with the unmodified or modified hASL^Lys3UUU, but not both",
"CC(C)C[C@H](NC(=O)[C@H](CO)NC(=O)[C@@H]1CCCN1C(=O)[C@H](Cc1ccccc1)NC(=O)[C@H](CO)NC(=O)[C@@H](NC(=O)[C@H](CO)NC(=O)[C@@H](N)Cc1ccccc1)C(C)C)C(=O)N1CCC[C@H]1C(=O)N[C@@H](C)C(=O)N1CCC[C@H]1C(=O)N1CCC[C@H]1C(=O)N[C@@H](CC(=O)O)C(=O)N[C@@H](CCCNC(=N)N)C(=O)N[C@@H](CO)C(=O)O [Peptide P1, FSVSFPSLPAPPDRS, reference compound] (H-FSVSFPSLPAPPDRS-OH)",0.13 ± 0.02 µM,"increased the fluorescence either with the unmodified or modified hASL^Lys3UUU, but not both",affinity relative to P6 [1]: four fold; Kd [8]: 0.15 ± 0.04 µM
"CSCC[C@H](NC(=O)[C@H](CCC(N)=O)NC(=O)[C@H](Cc1c[nH]c2ccccc12)NC(=O)[C@@H](N)CCCNC(=N)N)C(=O)N[C@H](C(=O)N[C@@H](C)C(=O)N[C@@H](Cc1ccccc1)C(=O)N[C@@H](C)C(=O)N[C@@H](Cc1c[nH]cn1)C(=O)NCC(=O)N[C@@H](Cc1c[nH]c2ccccc12)C(=O)N[C@@H](CCCNC(=N)N)C(=O)N[C@@H](Cc1c[nH]cn1)C(=O)N[C@@H](CO)C(=O)NCC(=O)O)[C@@H](C)O [Peptide P27, RWQMTAFAHGWRHSG] (H-RWQMTAFAHGWRHSG-OH)",0.05 ± 0.02 µM,quenched to a greater degree in binding the modified hASL^Lys3UUU than was the fluorescence of P6,affinity relative to P6 [1]: 10 fold; change in fluorescent signal of peptide [3]: little or no change in fluorescence
RFQHSNWFSGWKVNG [Peptide P34],,"increased the fluorescence either with the unmodified or modified hASL^Lys3UUU, but not both",
RTLHHALFGAHQTVG [Peptide P26],,"increased the fluorescence either with the unmodified or modified hASL^Lys3UUU, but not both",
